Results taken from BindingDB's records for doi:10.1021/jm00107a034 (Sterling Research Group, 1991).

How the values were obtained:
[1] = Concentration required to inhibit 50% activity of prostaglandin synthetase was determined in vitro in mouse brain microsomes
[2] = Concentration required to inhibit 50% activity of prostaglandin synthetase was determined in mouse vas deferens

SMILES: COc1ccc(C(=O)c2cn(CCN3CCOCC3)c3ccccc23)cc1
- IC50 [1]: > 30 µM
- IC50 [2]: 5 µM

SMILES: COc1ccc(C(=O)c2c(C)n(CCN3CCOCC3)c3ccccc23)cc1 [(s-cis) -(4-Methoxy-phenyl)-[2-methyl-1-(2-morpholin-4-yl-ethyl)-1H-indol-3-yl]-methanone]
- IC50 [2]: > 30 µM

SMILES: Cc1c(C(=O)c2cccc3ccccc23)c2ccccc2n1CCN1CCOC(O)C1 (centres undefined)
- IC50 [2]: 0.57 µM
